The values that follow are results of earlier work, collected in patent US9943479B2, “Injectable liquid paracetamol formulation” (GENFARMA LABORATORIO S.L., priority 2006, dated 2018).

Molecules are shown by their SMILES. Values after ≈ are worked out from the molar mass of the structure shown. Read-outs that look alike come from different tables or passages of the source.

Turning to `CC(=O)Nc1ccc(O)cc1` [paracetamol, n-acetyl-4-aminophenol], the “solubility in aqueous medium” value is roughly 8000 µg/mL (≈ 52.9 mM) (4° C.) and roughly 12000 µg/mL (≈ 79.4 mM) (20° C.).
